Reference: PMC8007387 (Clinical Pharmacokinetics, 2021)
Read-outs that look alike come from different tables or passages of the source.

Key:
clinical [1] = settings: male, human, in vivo
[2] = in vivo, cited from earlier work
[3] = in vivo; cited from earlier work
QTcF interval = settings: in vivo
clinical [4] = settings: both, human, in vivo
[5] = male, human, in vivo
[6] = test system: aryl hydrocarbon receptor; settings: cited from earlier work
pregnane X receptor = settings: cited from earlier work
CYP3A = settings: recombinant enzyme; cited from earlier work
CYP3A4 = settings: cited from earlier work
[7] = both, human, in vivo
[8] = human, in vivo
cytochrome P450 (CYP) 3A = settings: cited from earlier work
P-glycoprotein = settings: cited from earlier work
OATP1B3 = settings: cited from earlier work
carboxylesterase 1 = settings: cited from earlier work
MERS-CoV = settings: rhesus monkey, in vivo; cited from earlier work
OATP1B1 [9] = settings: cited from earlier work
CYP2C8 = settings: recombinant enzyme; cited from earlier work
CES-1, CatA and CYP3A = test system: CES-1, CatA and CYP3A; parameters: species or system human
in vivo = settings: rhesus monkey, iv
MATE1 = settings: cited from earlier work
cathepsin A = settings: cited from earlier work
[10] = human; cited from earlier work
OATP1B1 [11] = settings: cited from earlier work; remark: listed apart in the source
CYP2D6 = settings: recombinant enzyme; cited from earlier work
[12] = Sprague-Dawley, rat, in vivo, iv, 10 mg/kg
[13] = human, plasma; cited from earlier work
[14] = monkey, in vivo

N#C[C@@]1(c2ccc3c(N)ncnn23)O[C@H](CO)[C@@H](O)[C@H]1O [GS-441524]
CL renal (clinical [1]; estimated secretory clearance CLr,s): 31 mL/min
Tmax (clinical [1]; iv): 3 h
CL renal (clinical [1]; renal clearance CLr): 151 mL/min
t1/2 ([2]; 150 mg): ~ 24.5 h
dose dependence of PK ([2]; iv): linear pharmacokinetics
accumulation in plasma [2]: approximately 1.9 fold
steady state reached by day [2]: 4 days
steady state reached on day [2]: 4 days
dose recovered in urine as this analyte [3]: 48.6%
QTcF interval prolongation (QTcF interval): do not cause QTcF interval prolongation
AUC (clinical [4]; 100 mg): 2230 ng·h/mL
Cmax (clinical [4]; 100 mg): 145 ng/mL
Tmax (clinical [4]; 100 mg): 1.51 h
half-life (clinical [4]; 100 mg, t1/2, median (Q1, Q3)): 27.4 h
AUC(0-t) (clinical [4]; 200 mg): 2190 ng·h/mL
Cmax (clinical [4]; 200 mg): 143 ng/mL
Tmax (clinical [4]; 200 mg): 2 h
secretory clearance as share of CLr [5]: 21 % of CLr

CCC(CC)COC(=O)[C@H](C)N[P@](=O)(OC[C@H]1O[C@@](C#N)(c2ccc3c(N)ncnn23)[C@H](O)[C@@H]1O)Oc1ccccc1 [RDV, 2-ethylbutyl N-{(S)-[2-C(4-aminopyrrolo[2,1-f][1,2,4]triazin-7-yl)-2-5-anhydro-d-altrononitril-6-O-yl]phenoxyphosphoryl}-L-alaninate]
clearance (clinical [1]): 1170 mL/min
half-life (clinical [1]; iv, 150 mg): ~1 h
CL renal (clinical [1]; renal clearance CLr): 129 mL/min
induction of enzymes or transporters via aryl hydrocarbon receptor [6]: no potential for induction
induction of enzymes or transporters via pregnane X receptor (pregnane X receptor): no potential for induction
metabolism by CYP3A (CYP3A): can be metabolized
inhibition of CYP3A4 (CYP3A4): weak inhibitor
median time of occurrence of maximum observed plasma concentration [7]: ~ 0.7 h
accumulation [2]: lack of accumulation
graded ALT abnormalities ([8]; both): eight participants with Grade 1 and 1 subject with Grade 2 ALT abnormalities
infusion-site phlebitis, participants ([8]; both): 40%
serious AEs, Grade 3 or 4 AEs, deaths ([8]; both): no serious AEs, Grade 3 or 4 AEs, or deaths
graded ALT abnormalities [8]: no graded alanine aminotransferase (ALT) abnormalities
overall tolerability [8]: generally well tolerated
transient Grade 1 AST abnormalities [8]: four of the nine participants with graded ALT abnormalities
CYP-dependent hepatic metabolism, share of total hepatic clearance (cytochrome P450 (CYP) 3A): 10%
contribution to total metabolism (cytochrome P450 (CYP) 3A): 10%
substrate for P-glycoprotein (P-glycoprotein): substrate
inhibition of OATP1B3 (OATP1B3): weak inhibitor
contribution to total metabolism (carboxylesterase 1): 80%
lung viral loads lower in each lung lobe (MERS-CoV): 2.5–4 logs
lung viral loads versus vehicle-treated animals (MERS-CoV): lower when all lung lobes were combined
prophylactic efficacy versus vehicle-treated animals (MERS-CoV): significant reduction in clinical scores, clinical signs of respiratory disease, and viral RNA levels
dose recovered in urine as this analyte [3]: 10.3%
inhibition of OATP1B1 (OATP1B1 [9]): weak inhibitor
metabolism by CYP2C8 (CYP2C8): can be metabolized
extraction ratio (CES-1, CatA and CYP3A): 0.6–0.8
AUC(0-t) (in vivo): 1430 ng·h/mL
Cmax (in vivo): 3350 ng/mL
inhibition of MATE1 (MATE1): weak inhibitor
contribution to total metabolism (cathepsin A): 10%
mean whole blood/plasma concentration ratio [10]: 0.76
substrate for OATP1B1 (OATP1B1 [11]): substrate
upper bound of two-sided 90% CI of predicted mean ΔΔQTcF (QTcF interval; human): < 10 ms
QTcF interval prolongation (QTcF interval): do not cause QTcF interval prolongation
AUC (clinical [4]; 100 mg): 1590 ng·h/mL
Cmax (clinical [4]; 100 mg): 2230 ng/mL
Tmax (clinical [4]; 100 mg): 0.68 h
clearance (clinical [4]; 100 mg, CLss, mean (%CV)): ~1080 mL/min
half-life (clinical [4]; 100 mg, t1/2, median (Q1, Q3)): 0.96 h
AUC(0-t) (clinical [4]; 200 mg): 2860 ng·h/mL
Cmax (clinical [4]; 200 mg): 4380 ng/mL
Tmax (clinical [4]; 200 mg): 0.67 h
half-life (clinical [4]; 200 mg, t1/2, median (Q1, Q3)): 0.9 h
AUC (clinical [4]; iv): 1590 ng·h/mL
half-life (clinical [4]; median t1/2): ~1 h
metabolism by CYP2D6 (CYP2D6): can be metabolized
administered radioactivity excreted in feces [12]: 27.8%
administered radioactivity excreted in urine [12]: 63.0%
time within which most of the radioactivity was excreted [12]: ≤ 48 h
blood-to-plasma ratio of [14C]-radioactivity [5]: 0.68
mean total recovery of the radioactive dose [5]: > 92%
radioactive dose recovered in feces [5]: ~18%
radioactive dose recovered in urine [5]: approximately 74%
protein binding (bound) [13]: 88–93.6%
administered radioactivity recovered in feces [14]: 25.6%
administered radioactivity recovered in urine [14]: 33.6%
